The structures appear in SMILES notation.

The values below come from a melting point compilation (Tetko et al.; mined from patent text by program, amines drawn as free bases though some values may be those of a salt).

In general, melting point refers to the temperature, or range, at which the solid turns liquid. For the compound `O=C(O)c1cn(C2CC2)c2c(F)c(N3CC(CNC(=O)C(F)(F)F)C3)c(F)cc2c1=O`, the melting point fell in the range of 145 to 150 °C.

In turn, `O=C(COc1cc(-c2ccccc2)on1)NCCO[N+](=O)[O-]` displayed a melting point of 113 to 114 °C.

With `CC(=O)Oc1cccc(-c2c3ccccc3c(Br)c3sc4ccccc4c23)c1`, the melting point fell in the range of 74 to 76 °C.

In the case of `CCc1cn(C2CC(O)(c3ccc(C)cc3)C(C(O)c3ccc(C)cc3)O2)c(=O)[nH]c1=O` (centres undefined), the melting point was in the range of 192 to 194 °C.

Turning to `C#CCOc1cc(NC(=O)CC(CC(=O)O)C(F)(F)F)ccc1Cl` (centres undefined), the melting point was 128 to 130 °C.

Consider `Cc1cc2c(s1)S(=O)(=O)N(C(C)(C)C)C2=O`, for which the melting point lay in the range of 80 to 81 °C.

As to `COc1ccccc1CN1CCN(C)CC1C1=NCCN1` (centres undefined), the melting point was in the range of 168 to 170 °C.

`Clc1ccc(C(Cn2ccnc2)C2CCCC2)c(Cl)c1` (centres undefined): the melting point is 97.6 °C.

The compound `O=C(OCC1(c2ccccc2)CC1)c1cccc2nnsc12` had a melting point of 55 to 57 °C.

In the case of `Clc1nccc2[nH]cnc12`, the melting point lay in the range of 100 to 102 °C.

Regarding `O=C(O)C1CCCc2c1c1ccccc1n2Cc1ccccc1` (centres undefined), the melting point lay within 212 to 215 °C.

For the compound `N#CCC(CC#N)c1cccnc1`, the melting point was in the range of 60 to 61 °C.

On to `COCCN(CCOC)CC1=Cc2ccsc2S(=O)(=O)N1Cc1ccc(OC)cc1`, for which the melting point was 75 to 77 °C.

`Cc1cc(C)c2c(c1)c(-c1ccccc1Cl)c(NC(=O)Nc1ccc(F)cc1F)c(=O)n2C` came in with a melting point of 225 to 227 °C.

In turn, `CS(=O)(=O)Nc1nc(CCCN2CCN(C(c3ccccc3)c3ccccc3)CC2)cs1` came in with a melting point of 181 to 183 °C.

The compound `COC(=O)c1cn(C)cn1` returned a melting point of 72.5 to 81 °C.

The compound `OCc1ccc(-c2ccc(OC(F)(F)F)c(F)c2)cn1` showed a melting point of 51 to 53 °C.

Regarding `NC(=O)c1ccc2c(c1)S(=O)(=O)c1ccccc1C2=O`, the melting point lay in the range of 282 to 283 °C.

In turn, `Nc1ccc(Cc2ccc(C3(c4ccc(Cc5ccc(N)cc5)cc4)CCCCC3)cc2)cc1` gave a melting point of 154 to 156 °C.

`O=Cc1ccc(-c2ccccc2)c(Cl)c1` returned a melting point of 70 to 72 °C.

In turn, `CC(C)(C)c1cc(-c2nc(CN3CCCC3)no2)cc(C(C)(C)C)c1O` came in with a melting point of 100 to 102 °C.

For `CN1C(=O)C(c2ccccc2)(c2ccncc2)N=C1N` (centres undefined), the melting point fell in the range of 154 to 155 °C.

In turn, `N#Cc1ccc(N2C(=O)C3CSCN3C2=O)c2ccccc12` (centres undefined) displayed a melting point of 223 to 225 °C.

`Cc1nc(-n2ccc(-c3ccccc3)cc2=O)sc1C(=O)NCc1ccccc1` came in with a melting point of 235 to 237 °C.

For the compound `CC(=O)Nc1cc([N+](=O)[O-])c(Cl)cc1F`, the melting point was in the range of 125 to 126 °C.

`CC(=O)N[C@@H]1c2ccccc2C[C@@H]1C` (relative stereo) displayed a melting point of 146 to 147 °C.

In turn, `Cn1c(=S)n(C)c(=O)n(-c2c(F)cc(Cl)c3ncoc23)c1=O` displayed a melting point of 209 to 211 °C.

`CCc1cc(C(=O)O)c(OC(C)=O)cc1C` displayed a melting point of 132 to 134 °C.

`Cc1ccccc1Cn1cnc(C#N)c1C#N` had a melting point of 80 to 81 °C.

`O=CN(O)CCCC(O)CS(=O)(=O)c1ccccc1Oc1ccc(OC(F)(F)F)cc1` (centres undefined) came in with a melting point of 92 to 93.9 °C.

The compound `COc1cc2c(Nc3ccc(Cl)cc3F)ncnc2cc1OCCSc1ccncc1` gave a melting point of 182 to 186 °C.

Consider `CCNS(=O)(=O)c1ccccc1C1CCCCC1`, for which the melting point was in the range of 100 to 102 °C.

The compound `CC1(C)N=C(c2ccccc2Cl)c2cc([N+](=O)[O-])ccc2NC1=O` yielded a melting point of 125 to 127 °C.

`NCc1ccccc1-c1ccc(C(=O)N2Cc3ccc(C(=O)NCc4cccnc4)n3Cc3ccccc32)cc1` yielded a melting point of 115 to 120 °C.

`O=C(Nc1cc2cn[nH]c2cc1Cl)c1ccccc1NCc1ccncc1` gave a melting point of 223 °C.

Compound `CN(C)c1ccc(-c2c(O)c3ccc(Cl)cc3[nH]c2=O)cc1` came in with a melting point of more than 300 °C.

With `CCOC(=O)c1cn(C2CC2)c2c(F)c(F)c(Cl)cc2c1=O`, the melting point fell in the range of 169 to 172 °C.

For `COc1cc(C)nc(NC(=O)NS(=O)(=O)c2cc([N+](=O)[O-])cs2)n1`, the melting point worked out at 155 °C.

For the compound `Nc1cc(Br)ccc1-c1ccc(F)cc1F`, the melting point was 67 to 69 °C.

For `Cc1cc(O)ccc1-c1c(C=O)sc(-c2ccc(O)c(F)c2)c1C`, the melting point is 227 to 230 °C.

For `Cc1ccc2c(n1)Nc1cc(C)c(C)cc1N(C)C2=O`, the melting point fell in the range of 217 to 219 °C.

As for `Nc1n[nH]cc1S(=O)(=O)c1ccccc1`, the melting point fell in the range of 159 to 161 °C.

The compound `COC(=O)C(=Cc1ccc(OC)c(OC)c1)NC(C)=O` showed a melting point of 198 to 200 °C.

For the compound `CC(C)(C)SCC1Cn2cc(C(=O)NCc3ccc(Cl)cc3)c(=O)c3cc(CN4CCOCC4)cc(c32)O1` (centres undefined), the melting point is 198 to 201 °C.

`COc1ccc(C(=O)CC(SC(C)=O)C(=O)O)cc1OC` (centres undefined) displayed a melting point of 110 to 112 °C.

In the case of `c1ccc2c(c1)ncc1nncn12`, the melting point lay within 238 to 239 °C.

With `CS(=O)(=O)c1ccc(C2=C(c3cccc(F)c3F)CCC2)cc1`, the melting point lay in the range of 151 to 152 °C.

The compound `COCS[C@H](C)[C@](O)(Cn1cncn1)c1ccc(Cl)cc1` registered a melting point of 122 °C.

`O=C(NO)c1cc(Oc2ccc(C(F)(F)F)cc2Cl)ccc1O` returned a melting point of 188 to 191 °C.

In turn, `CCCc1nc2c(N)nc(C)c(C)c2n1CCCCCCS(C)(=O)=O` came in with a melting point of 157 to 158 °C.

`COc1ccc(S(=O)(=O)Nc2ccccc2Nc2ccncc2)cc1` gave a melting point of 185 to 187 °C.

The compound `CCSC1CCC(=O)N1S(=O)(=O)c1ccccc1` (centres undefined) gave a melting point of 100 to 113 °C.

`CCOC(=O)C=C1c2ccccc2CC(=O)c2ccccc21` came in with a melting point of 56 to 62 °C.

On to `CC(C)(C)c1ccc(CCCCN2CCC(C3(O)c4ccccc4CCc4ccccc43)CC2)cc1`, for which the melting point was 99 to 101 °C.

In the case of `COC(=O)C(Cc1ccccc1)Oc1ccc2cc(CNC(=O)c3ccc(C4CCCCC4)cc3)ccc2c1Br` (centres undefined), the melting point fell in the range of 160 to 161 °C.

`O=C1CCN(Cc2cc([N+](=O)[O-])ccc2O)CC1C(c1ccc(F)cc1)c1ccc(F)cc1` (centres undefined) came in with a melting point of 169 to 170 °C.

For `O=c1[nH]c(=O)n(CCCN2CCC(OC(c3ccccc3)c3ccccc3)CC2)c2ccccc12`, the melting point is 149 to 151 °C.

With `O=C(Nc1ccc(Br)cc1)c1ccccc1NCc1ccncc1`, the melting point lay in the range of 136 to 137 °C.

Take `COc1cc2c(cc1Br)CC(SC)=NN=C2c1ccc([N+](=O)[O-])cc1`: the melting point lay in the range of 225 to 227 °C.

On to `O=[N+]([O-])c1ccc2onc(-c3ccccc3O)c2c1`, for which the melting point fell in the range of 172 to 176 °C.

Consider `O=C(Nc1cccnc1Nc1ccc(CCNC[C@H](O)COc2ccc(O)cc2)cc1)c1ccccc1`, for which the melting point fell in the range of 97 to 99 °C.

`CC(C)C1(C)NC(c2nccc(O)c2C(=O)O)=NC1=O` (centres undefined): the melting point was in the range of 210 to 211 °C.

`CCCC(=O)c1ccc(N(CCO)CCO)cc1` showed a melting point of 72 to 75 °C.

For the compound `Cc1cc(CCC(=O)OC(C)(C)C)cc(-c2nc(=O)c3ccc(Cl)cc3s2)n1`, the melting point lay within 186 to 188 °C.

Turning to `NC1CC(O)c2ccccc21` (centres undefined), the melting point lay within 108 to 110 °C.

The compound `CC(C)(C)c1cc(C(=O)Nc2cccc(C(=O)O)c2)cc(C(C)(C)C)c1O` returned a melting point of 279 to 280 °C.

Consider `COCCCOc1cc(C[C@@H](C(=O)N2C(=O)OC[C@H]2Cc2ccccc2)C(C)C)ccc1OC`, for which the melting point is 55 to 56 °C.

The compound `CN(C1CCN(C2CC2)CC1)S(=O)(=O)c1ccc(Nc2nccc(Nc3ccc(F)cc3)n2)cc1` showed a melting point of 125 to 128 °C.

In the case of `Nc1c(C(=O)c2cc(F)cc(F)c2)[nH]c2cc(Cl)ccc12`, the melting point was in the range of 149 to 151 °C.

Consider `COC(=O)C(=O)Nc1cccc2c1C(=O)N(C1CCC(=O)NC1=O)C2=O` (centres undefined), for which the melting point fell in the range of 247 to 249 °C.

In turn, `COc1ccc(C2=NN(C3CCN(S(=O)(=O)c4cccc5c(N(C)C)cccc45)CC3)C(=O)[C@@H]3CC=CC[C@H]23)cc1OC` registered a melting point of 198 to 200 °C.

With `CC(=O)Nc1cccc2c1Oc1ccccc1C21CCN(C)CC1`, the melting point fell in the range of 176 to 178 °C.

As for `CCCc1ccn(-c2ccc(S(C)(=O)=O)cc2)c1-c1ccc(F)cc1`, the melting point was 116 to 117 °C.

With `C[C@@H]1Cc2ccsc2[C@H](C)N1CCCNS(=O)(=O)c1ccc(N)cc1` (relative stereo), the melting point fell in the range of 134 to 138 °C.

`C[C@@H](n1cnn(-c2ccc(OC(F)(F)C(F)F)cc2)c1=O)[C@@]1(c2ccc(F)cc2F)CO1` displayed a melting point of 105 to 106 °C.

Compound `C#CCOc1cc(-c2ncc(C(F)(F)F)cc2F)c(F)cc1Cl` yielded a melting point of 68 to 70 °C.

`COc1ccc(Br)c(COc2ccc3ccc(OC)cc3c2Cl)c1` had a melting point of 126 to 127 °C.

On to `CC1(C)CC(n2cncc2C(=O)O)c2ccccc2O1` (centres undefined), for which the melting point was 246 °C.

On to `CC1(C)CC(=O)C(C(=O)Nc2ccc(Cl)c(Cl)c2)C(=O)C1`, for which the melting point fell in the range of 124 to 129 °C.

For the compound `COc1ccccc1-c1ccc2cnc(Nc3ccc(OCCN4CCOCC4)cc3)nn12`, the melting point lay within 133 to 135 °C.

Regarding `CCOC(=O)c1ccc(C(Cc2ccncc2)c2ccc(OC)c(OC3CCCC3)c2)cc1` (centres undefined), the melting point was in the range of 170 to 173 °C.

`COc1cc(OS(C)(=O)=O)ccc1C1=NC2=NCC(=O)NC2=N1` returned a melting point of more than 260 °C.

With `COC1=CC(=O)C2=C(C1=O)C(Cl)C(Cl)CC2` (centres undefined), the melting point was in the range of 119 to 123 °C.

`NCCNc1cc(Cl)cc(NCCN)c1[N+](=O)[O-]`: the melting point is 113 °C.

Consider `CCCCCC(=N)NC(=S)Nc1ccc(Cl)cc1`, for which the melting point was 100 to 102 °C.

Regarding `CN(C)c1nc2cc(NC(=O)c3c(C(=O)N4CCOCC4)cnn3C)ccn2n1`, the melting point is 196 to 198 °C.

Turning to `CCOC(=O)c1cc(-c2cccc(C(F)(F)F)c2)c(OCCO)c(-c2cccc(C(F)(F)F)c2)c1`, the melting point was 154 to 158 °C.

As to `CCCCc1nc(-c2nc(C)nc(C)n2)ccc1C`, the melting point turned out to be 73.5 °C.

`Nc1cccc(OCc2ccccc2)c1NC(=O)c1ccc(OCc2ccccc2)c(C23CC4CC(CC(C4)C2)C3)c1` displayed a melting point of 80 to 82 °C.
